IC50, LD50 and half-life data for 18 compounds are collected here from ChEMBL document CHEMBL4350986, “Triptolide: Medicinal chemistry, chemical biology and clinical progress” (Eur J Med Chem, 2019).

Series [1] has as its system KB. The series is described as follows: Cytotoxicity against human KB cells assessed as decrease in cell viability by MTT assay. In kind it is functional, cell-based.
Series [2] relates to HL-60. Description: Cytotoxicity against human HL60 cells assessed as decrease in cell viability after 72 hrs by MTT assay. Format: functional, cell-based. As to conditions: HL-60, 72 h. (Formazan colour is commonly taken as a measure of viable cells.)
In series [3] the test system is HeLa. Description: Cytotoxicity against human HeLa cells assessed as decrease in cell viability by MTT assay. In kind it is functional, cell-based.
The test system of series [4] is MCF7. Description: Cytotoxicity against human MCF7 cells assessed as decrease in cell viability by MTT assay. Format: functional, cell-based.
The subject of series [5] is MCF7. The series is described as follows: Cytotoxicity against human MCF7 cells assessed as decrease in cell viability after 72 hrs by MTT assay. In kind it is functional, cell-based. The conditions noted are these: MCF7, 72 h.
Series [6] relates to A549. The series is described as follows: Cytotoxicity against human A549 cells assessed as decrease in cell viability after 72 hrs by MTT assay. In kind it is functional, cell-based. The conditions noted are these: A549, 72 h.
Series [7] deals with MKN-28. The series is described as follows: Cytotoxicity against human MKN28 cells assessed as decrease in cell viability after 72 hrs by MTT assay. As to conditions: MKN-28, 72 h. Format: functional, cell-based.
Series [8] concerns P388. The series is described as follows: Cytotoxicity against mouse P388 cells assessed as decrease in cell viability after 72 hrs by MTT assay. In kind it is functional, cell-based. The conditions noted are these: P388, 72 h.
For series [9], the system named is HL-60. The series is described as follows: Cytotoxicity against human HL60 cells assessed as decrease in cell viability by MTT assay. Format: functional, cell-based.
Series [10] concerns BGC-823. The series is described as follows: Cytotoxicity against human BGC823 cells assessed as decrease in cell viability by MTT assay. Format: functional, cell-based.
Series [11] is described as follows: Toxicity in rat ear inflammation model. The conditions noted are these: in vivo.
Series [12] relates to HL-60. Description: Cytotoxicity against human HL60 cells assessed as decrease in cell viability. In kind it is functional, cell-based.
In series [13] the test system is Jurkat. Description: Cytotoxicity against human Jurkat cells assessed as decrease in cell viability. Format: functional, cell-based.
Series [14] deals with HCT-116. The series is described as follows: Cytotoxicity against human HCT116 cells assessed as decrease in cell viability. Format: functional, cell-based.
The subject of series [15] is NIH3T3. Description: Cytotoxicity against mouse NIH/3T3 cells assessed as decrease in cell viability. Format: functional, cell-based.
Series [16] is described as follows: Cytotoxicity against human OVCAR1 cells assessed as decrease in cell viability. In kind it is functional, cell-based.
The nature of series [17]: Cytotoxicity against human Col-06 cells assessed as decrease in cell viability. In kind it is functional, cell-based.
A short description of series [18]: Cytotoxicity against human Re-01 cells assessed as decrease in cell viability. Format: functional, cell-based.
Series [19] in a line: Cytotoxicity against human SK-MEL-8 cells assessed as decrease in cell viability. Format: functional, cell-based.
Series [20] is described as follows: Cytotoxicity against human Bre01 cells assessed as decrease in cell viability. Format: functional, cell-based.
The test system of series [21] is MDCK. The series is described as follows: Cytotoxicity against MDCK cells assessed as decrease in cell viability. As to conditions: Canis lupus familiaris. In kind it is functional, cell-based.
Series [22] relates to HeLa. The series is described as follows: Cytotoxicity against human HeLa cells assessed as decrease in cell viability. In kind it is functional, cell-based.
Series [23] can be described thus: Half life of the compound. In kind it is physicochemical.

Converted amounts (≈) assume the structure as drawn.

As for `CC(C)[C@]12O[C@H]1[C@@H]1O[C@]13[C@]1(O[C@H]1C[C@@]1(O)C4=C(CC[C@]31C)C(=O)OC4)[C@@H]2O`, the IC50 (commonly the midpoint of a concentration-inhibition curve) in [1] is 300 nM; in series [2] it was 0.04 to 0.2 nM; in series [3], 340 nM; in [4] it was 1050 nM; in series [5] it was 0.04 to 0.2 nM; in series [6] it was 0.04 to 0.2 nM. Further, the IC50 in series [7] is 0.04 to 0.2 nM; in series [8], 0.04 to 0.2 nM; in series [9], 470 nM; in series [10], 1500 nM.
As for `CC(C)[C@]1(O)[C@H](O)[C@@H]2O[C@]23[C@]2(O[C@H]2C[C@H]2C4=C(CC[C@@]23C)C(=O)OC4)[C@@H]1O`, in [11], the LD50 (usually the dose at which mortality reaches 50%) is above 500 mg/kg.
`CC(C)C1=C[C@@H]2O[C@@]23[C@@]2(C)CCC4=C(COC4=O)[C@@H]2C[C@@H]2O[C@@]23C1=O`: the IC50 in [12] came to 16000 nM; in series [13], 31000 nM.
For `C[C@]12CCC3=C(COC3=O)[C@@H]1C[C@@H]1O[C@@]13C(=O)[C@@]1(CCCC(=O)O)O[C@H]1[C@@H]1O[C@]123`, the IC50 in series [14] came to 560 nM.
Take `C[C@@H]([C@@H]1CO1)[C@]12O[C@H]1[C@@H]1O[C@@]13[C@@]1(C)CCC4=C(COC4=O)[C@@H]1C[C@@H]1O[C@@]13C2=O`: in series [15], the IC50 stood at 40 nM.
In the case of `C[C@]12CCC3=C(COC3=O)[C@@H]1C[C@@H]1O[C@@]13[C@H](O)[C@@]1(CCO)O[C@H]1[C@@H]1O[C@@]132`, the IC50 in series [14] is 74.7 nM.
Consider `CC(C)[C@]12O[C@H]1[C@@H]1O[C@]13[C@]1(O[C@H]1C[C@H]1C4=C(CC[C@@]13C)C(=O)O[C@H]4O)[C@@H]2O`, for which the IC50 came out at 46500 nM in [1] and 52600 nM in series [9].
In the case of `CC(C)[C@]12O[C@H]1[C@@H]1O[C@@]13[C@@]1(C)[C@H](O)CC4=C(COC4=O)[C@@H]1C[C@@H]1O[C@@]13[C@@H]2O`, the IC50 in series [1] was 120 nM; in series [3], 320 nM; in series [4] it was 870 nM; in [9], 70 nM; in series [10] it was 7650 nM.
For `C[C@]12CCC3=C(COC3=O)[C@@H]1C[C@@H]1O[C@@]13C(=O)[C@H]1O[C@H]1[C@@H]1O[C@]123`, the IC50 in series [14] is 537 nM.
On to `CC(C)[C@]12O[C@H]1[C@@H]1O[C@]13[C@]1(O[C@H]1C[C@H]1C4=C(CC[C@@]13C)C(=O)OC4)[C@@H]2NC=O`, for which, in series [14], the IC50 was 354 nM.
Turning to `C[C@]12CCC3=C(COC3=O)[C@@H]1C[C@@H]1O[C@@]13[C@@H](O)[C@@]1(CCO)O[C@H]1[C@@H]1O[C@@]132`, the IC50 in series [14] amounted to 70.7 nM.
Regarding `CC(C)[C@]1(O)[C@H](N=C=S)[C@@H]2O[C@]23[C@]2(O[C@H]2C[C@H]2C4=C(CC[C@@]23C)C(=O)OC4)[C@@H]1O`, the IC50 in [16] was found to be 0.02 mg/L (≈ 0.0477 µM); in series [17], 0.03 mg/L (≈ 0.0715 µM); in [18] it was 0.06 mg/L (≈ 0.143 µM); in series [19], 0.09 mg/L (≈ 0.215 µM); in [20], 0.055 mg/L (≈ 0.131 µM).
In the case of `CC[C@@H](CO)[C@]12O[C@H]1[C@@H]1O[C@@]13[C@@]1(C)CCC4=C(COC4=O)[C@@H]1C[C@@H]1O[C@@]13C2=O`, the IC50 in series [15] is 10 nM; in [21], 270 nM; in series [22], 2 nM; in series [13] it was below 40 nM.
`CCCNC(=O)OCCC[C@]12O[C@H]1[C@@H]1O[C@@]13[C@@]1(C)CCC4=C(COC4=O)[C@@H]1C[C@@H]1O[C@@]13C2=O`: in series [14], the IC50 was 8.4 nM.
For the compound `CC(C)C1=C[C@H]2O[C@]23[C@@]2(C)CCC4=C(COC4=O)[C@@H]2C[C@@H]2O[C@@]23C1=O`, the IC50 in [12] and in series [13] was 16000 nM throughout.
`CC(C)[C@]12O[C@H]1[C@@H]1O[C@]13[C@]1(O[C@H]1C[C@H]1C4=C(CC[C@@]13C)C(=O)OC4)[C@@H]2N`: in series [14], the IC50 stood at 772 nM.
Regarding `CC(C)[C@]12O[C@H]1[C@@H]1O[C@]13[C@]1(O[C@H]1C[C@H]1C4=C(CC[C@@]13C)C(=O)OC4)[C@@H]2OCOP(=O)([O-])[O-].[Na+].[Na+]` [MINNELIDE], in series [23], the half-life (commonly how long it takes for the measured level to halve) stood at 2 min.
Turning to `CC(C)[C@]12O[C@H]1[C@@H]1O[C@]13[C@]1(O[C@H]1C[C@H]1C4=C(CC[C@@]13C)C(=O)OC4)[C@@H]2O` [TRIPTOLIDE], the IC50 in series [15] is 50 nM; in series [16], 0.006 mg/L (≈ 0.0166 µM); in [21], 1200 nM; in [17], 0.02 mg/L (≈ 0.0555 µM); in [14] it was 4.7 nM; in [18], 0.03 mg/L (≈ 0.0832 µM). In addition, the IC50 worked out at 87 nM in series [22], 0.02 mg/L (≈ 0.0555 µM) in [19], 140 nM in series [13] and 0.04 mg/L (≈ 0.111 µM) in [20].
